Molecular target: T1, PA0285_317-760 (Pseudomonas aeruginosa, UniProt Q9I6K5)
T1 construct: gene PA0285; GGDEF/EAL tandem domains, residues 317-760 of 760; transmembrane and PAS domains absent; GST tag cleaved by thrombin; E. coli BL21(DE3); monomer (copies word: monomeric)
Assay: HDX-MS
Format: binding
Settings: 2.5 mM GTP, 1 mM MgCl2, 1 mM MnCl2, pH 7.5, 25 °C; site: GGDEF domain; no diguanylate cyclase turnover

T1 sequence (Q9I6K5 entry or part of it): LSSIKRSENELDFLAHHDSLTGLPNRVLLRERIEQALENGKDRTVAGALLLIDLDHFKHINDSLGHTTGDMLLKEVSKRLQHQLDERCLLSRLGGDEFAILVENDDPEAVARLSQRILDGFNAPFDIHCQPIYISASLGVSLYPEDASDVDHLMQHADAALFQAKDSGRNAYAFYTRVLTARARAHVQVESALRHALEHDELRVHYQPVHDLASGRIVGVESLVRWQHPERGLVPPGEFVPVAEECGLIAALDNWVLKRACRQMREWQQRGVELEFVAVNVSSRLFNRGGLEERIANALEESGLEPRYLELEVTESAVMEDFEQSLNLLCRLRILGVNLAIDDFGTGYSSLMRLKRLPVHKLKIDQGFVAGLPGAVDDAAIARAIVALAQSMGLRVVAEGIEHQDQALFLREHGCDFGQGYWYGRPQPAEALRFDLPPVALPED

Nc1nc2c(ncn2[C@@H]2O[C@H](COP(=O)(O)OP(=O)(O)OP(=O)(O)O)[C@@H](O)[C@H]2O)c(=O)[nH]1 [GTP]
HDX-MS: the neighboring helices exhibited reduced HDX, substantiating GTP binding
